Measured values reported in patent US11850220B2 (Augusta University Research Institute, Inc., priority 2020, dated 2023).

Legend:
[1] = test system: carrageenan-induced paw edema; assay: carrageenan-induced paw edema technique (anti-inflammatory); assay type: in vivo; for Observed (1/property): test concentration or dose not given here; for Potency (% Inhibition relative to indomethacin at 3 h effect): test concentration or dose not given here
Excerpt: Anti-inflammatory properties of the ibuprofen-amino acid conjugate (5a-j) and ibuprofen-amino acid-4-aminophenol conjugates 7a-j were studied by the standard carrageenan-induced paw edema technique (Naumov, R. N. et al., Bioorg. Med. Chem. Lett. 2015, 25, 2314-2320; Tiwari, A. D. et al., Org. Biomol. Chem. 2014, 12, 7238-7249).

[2] = target: T1, COX-2 (Homo sapiens, UniProt P35354); assay: COX-1/2 bio-assay: COX-2; assay type: biochemical
T1 sequence (P35354 18-604): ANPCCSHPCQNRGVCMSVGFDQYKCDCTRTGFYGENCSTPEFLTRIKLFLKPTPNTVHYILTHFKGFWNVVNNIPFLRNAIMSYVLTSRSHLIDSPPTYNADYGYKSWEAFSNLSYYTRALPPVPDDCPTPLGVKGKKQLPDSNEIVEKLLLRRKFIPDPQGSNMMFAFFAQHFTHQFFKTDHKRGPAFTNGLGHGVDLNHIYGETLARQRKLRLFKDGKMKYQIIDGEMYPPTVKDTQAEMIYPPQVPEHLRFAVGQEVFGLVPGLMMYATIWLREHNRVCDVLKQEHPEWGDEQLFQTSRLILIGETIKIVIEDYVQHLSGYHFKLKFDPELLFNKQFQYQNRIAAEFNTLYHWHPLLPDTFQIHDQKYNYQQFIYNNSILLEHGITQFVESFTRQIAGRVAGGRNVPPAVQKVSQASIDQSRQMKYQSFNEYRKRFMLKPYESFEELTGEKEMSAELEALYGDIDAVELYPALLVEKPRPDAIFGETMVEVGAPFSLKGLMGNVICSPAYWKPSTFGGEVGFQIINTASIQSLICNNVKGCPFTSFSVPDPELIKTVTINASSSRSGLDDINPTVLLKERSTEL
Excerpt: (§1) Cyclooxygenases (COX) are the key enzymes capable of the conversion of arachidonic acid to prostaglandins.

[3] = target: COX-1 (Homo sapiens, UniProt P23219); assay: COX-1/2 bio-assay: COX-1; assay type: biochemical; conditions: read-out: IC50 ± SD, COX-1
Excerpt: as §1

[4] = test system: hot plate; assay: hot plate technique (central analgesic); assay type: in vivo
[5] = test system: animal gastric mucosa; assay: ulcerogenic liability; assay type: in vivo; conditions: in vivo
[6] = test system: acetic acid-induced abdominal writhing; assay: acetic acid-induced abdominal writhing technique (peripheral analgesic); assay type: in vivo; for % Inhibition/protection: test concentration or dose not given here; for Writing reflex ± SEM: test concentration or dose not given here

Sequence of COX-1 (P23219 24-599): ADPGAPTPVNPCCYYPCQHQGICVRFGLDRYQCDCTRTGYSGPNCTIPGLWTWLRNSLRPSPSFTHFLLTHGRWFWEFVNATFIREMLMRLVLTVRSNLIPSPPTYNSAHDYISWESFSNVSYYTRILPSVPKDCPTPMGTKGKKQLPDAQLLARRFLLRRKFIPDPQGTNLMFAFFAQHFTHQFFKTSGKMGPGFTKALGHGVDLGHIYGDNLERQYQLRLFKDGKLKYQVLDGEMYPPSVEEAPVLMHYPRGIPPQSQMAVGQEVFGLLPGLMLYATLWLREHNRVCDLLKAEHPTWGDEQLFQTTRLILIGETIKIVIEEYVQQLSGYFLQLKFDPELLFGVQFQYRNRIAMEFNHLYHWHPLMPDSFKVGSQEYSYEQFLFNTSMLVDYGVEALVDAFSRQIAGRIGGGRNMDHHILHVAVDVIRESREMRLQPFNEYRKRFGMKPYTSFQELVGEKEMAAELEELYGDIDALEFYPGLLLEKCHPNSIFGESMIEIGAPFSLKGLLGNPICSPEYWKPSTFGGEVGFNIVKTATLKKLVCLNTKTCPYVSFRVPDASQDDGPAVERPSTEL

Compound: CC(C)Cc1ccc(C(C)C(=O)NCC(=O)Nc2ccc(O)cc2)cc1 (centres unmarked) [Compound 7a, N-(2-((4-Hydroxyphenyl)amino)-2-oxoethyl)-2-(4-isobutylphenyl)propanamide]
- Observed (1/property) ([1]; 1/(% inhibition of edema thickness at 3 h effect), Table 7): 0.01316
- % inhibition of edema ([1]; 1 h): 41%
- Mean edema thickness ([1]; 1 h): 0.73 ± 0.04 mm
- % inhibition of edema ([1]; 2 h): 65%
- Mean edema thickness ([1]; 2 h): 0.53 ± 0.03 mm
- % inhibition of edema ([1]; 3 h): 76%
- Mean edema thickness ([1]; 3 h): 0.31 ± 0.02 mm
- % inhibition of edema ([1]; 4 h): 83%
- Mean edema thickness ([1]; 4 h): 0.21 ± 0.02 mm
- % inhibition of edema ([1]; 24 h): 42%
- Mean edema thickness ([1]; 24 h): 0.11 ± 0.03 mm
- Observed property ([1]; % inhibition of edema thickness at 3 h effect, Table 7): 76%
- Observed property ([1]; anti-inflammatory property (% inhibition of edema at 3 h), Table 8): 76%
- Potency (% Inhibition relative to indomethacin at 3 h effect) ([1]; relative to indomethacin at 3 h effect): 95%
- IC50 ([2]; read-out: IC50 ± SD, COX-2): 78.3 ± 5.54 µM
- SI(COX-2/COX-1) ([2]; selectivity index COX-2/COX-1): 29.0
- IC50 [3]: 2.7 ± 0.13 µM
- % protection ([4]; After 30 min.): (97.1) %
- Latency period ± SEM ([4]; After 30 min.): 4.77 ± 0.07 s
- % protection ([4]; After 60 min.): (94.6) %
- Latency period ± SEM ([4]; After 60 min.): 4.34 ± 0.04 s
- % protection ([4]; After 90 min.): (86.4) %
- Latency period ± SEM ([4]; After 90 min.): 4.10 ± 0.02 s
- % protection ([4]; After 120 min.): (81.7) %
- Latency period ± SEM ([4]; After 120 min.): 3.98 ± 0.11 s
- Potency ([4]; Relative to indomethacin at 120 min.): 144
- % Incidence of ulcer divided by 10 [5]: 0
- Average of ulcer number [5]: 0
- Average severity of ulcer [5]: 0
- Number of animals with ulcer [5]: 0
- Ulcer index [5]: 0
- Potency ([6]; Relative to indomethacin): 139
- % Inhibition/protection ([6]; in vivo): 76.4%
- Writing reflex ± SEM ([6]; in vivo): 23.0 ± 0.9
- melting point: 175.9 °C
